The test system of this assay is CD2F1 mice, L1210 leukemia ip, survival T/C. In words: NCI In Vivo Anticancer Drug Screen. Data for tumor model L1210 Leukemia (intraperitoneal) in CD2F1 (CDF1) mice. The note with it: higher = longer survival. An outline of the steps: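 Vehicle-treated tumor-bearing mice served as controls (C) for compound-treated mice (T). Reported figure is T divided by C.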
[1] abbreviates: endpoint: mean survival time, dose: 100.0 mg/kg/injection, schedule: Q04DX002 (ip), vehicle: saline.
[2] abbreviates: endpoint: mean survival time, dose: 200.0 mg/kg/injection, schedule: Q04DX002 (ip), vehicle: saline.
Where [3] appears, read: endpoint: mean survival time, dose: 100.0 mg/kg/injection, schedule: Q01DX009 (ip), vehicle: saline with Tween-80.
Where [4] appears, read: endpoint: mean survival time, dose: 100.0 mg/kg/injection, schedule: Q04DX003 (ip), vehicle: saline with Tween-80.
Where [5] appears, read: endpoint: mean survival time, dose: 200.0 mg/kg/injection, schedule: Q01DX009 (ip), vehicle: saline with Tween-80.
[6] abbreviates: endpoint: mean survival time, dose: 200.0 mg/kg/injection, schedule: Q04DX003 (ip), vehicle: saline with Tween-80.
[7] abbreviates: endpoint: mean survival time, dose: 400.0 mg/kg/injection, schedule: Q01DX009 (ip), vehicle: saline with Tween-80.
The mark [8] stands for this setting: endpoint: mean survival time, dose: 400.0 mg/kg/injection, schedule: Q04DX003 (ip), vehicle: saline with Tween-80.
Setting [9] is: endpoint: mean survival time, dose: 150.0 mg/kg/injection, schedule: Q01DX009 (ip), vehicle: saline.
The mark [10] stands for this setting: endpoint: mean survival time, dose: 25.0 mg/kg/injection, schedule: Q04DX003 (ip), vehicle: saline with Tween-80.
Where [11] appears, read: endpoint: mean survival time, dose: 50.0 mg/kg/injection, schedule: Q04DX003 (ip), vehicle: saline with Tween-80.
The mark [12] stands for this setting: endpoint: mean survival time, dose: 12.5 mg/kg/injection, schedule: Q01DX009 (ip), vehicle: saline with Tween-80.
The mark [13] stands for this setting: endpoint: mean survival time, dose: 25.0 mg/kg/injection, schedule: Q01DX009 (ip), vehicle: saline with Tween-80.
[14] abbreviates: endpoint: mean survival time, dose: 50.0 mg/kg/injection, schedule: Q01DX009 (ip), vehicle: saline with Tween-80.

Values joined by “and” are separate entries in the source; they are usually repeats but may differ in a detail not shown here. Identical values can stand only once. Inconclusive results and toxic doses are left out.

In the case of `CCOC(=O)/C=C\C(=O)O.[Mn]`, the T/C is, setting by setting: (endpoint: mean survival time, dose: 25.0 mg/kg/injection, schedule: Q04DX003 (ip), vehicle: saline) 102 % of control; (endpoint: mean survival time, dose: 50.0 mg/kg/injection, schedule: Q04DX003 (ip), vehicle: saline) 104 % of control; under setting [1], 98 % of control; (endpoint: mean survival time, dose: 100.0 mg/kg/injection, schedule: Q04DX003 (ip), vehicle: saline) 112 % of control; (endpoint: mean survival time, dose: 200.0 mg/kg/injection, schedule: Q01DX001 (ip), vehicle: saline) 98 % of control; under setting [2], 97 % of control. Moreover, the T/C (endpoint: mean survival time, dose: 300.0 mg/kg/injection, schedule: Q04DX002 (ip), vehicle: saline) is 116 % of control.
In the case of `COC(=O)CCC(=O)N(C)CCc1c[nH]c2ccccc12`, the T/C runs as follows: under setting [3], 100 % of control; under setting [4], 93 % of control; under setting [5], 94 % of control; under setting [6], 93 % of control; under setting [7], 100 % of control; under setting [8], 98 % of control.
In the case of `NC(=O)Nc1cc(NC(N)=O)cc(N(CCCl)CCCl)c1`, the T/C reads like this: (endpoint: mean survival time, dose: 2.5 mg/kg/injection, schedule: Q01DX009 (ip), vehicle: Klucel (hydroxypropylcellulose) (HPC)) 108 % of control; (endpoint: mean survival time, dose: 5.0 mg/kg/injection, schedule: Q01DX009 (ip), vehicle: Klucel (hydroxypropylcellulose) (HPC)) 111 % of control; (endpoint: mean survival time, dose: 10.0 mg/kg/injection, schedule: Q01DX009 (ip), vehicle: Klucel (hydroxypropylcellulose) (HPC)) 119 % of control.
For `CC(=O)OCC1OC(c2nn(C(C)=O)c(C(N)=O)c2O)C(OC(C)=O)C1OC(C)=O` (centres undefined), the T/C was 153 % of control (endpoint: median survival time, dose: 25.0 mg/kg/injection, schedule: Q01DX005 (ip), vehicle: saline); 166 % of control (endpoint: median survival time, dose: 50.0 mg/kg/injection, schedule: Q01DX005 (ip), vehicle: saline); 96 % of control (endpoint: median survival time, dose: 100.0 mg/kg/injection, schedule: Q01DX005 (ip), vehicle: saline).
Take `C#CCCCCCC#[C][Hg][C]#CCCCCCC#C.C#CCCCCCC#[C][Hg][C]#CCCCCCC#C`: the T/C was 91 % of control (endpoint: mean survival time, dose: 75.0 mg/kg/injection, schedule: Q04DX003 (ip), vehicle: saline); 91 % of control under setting [9]; 94 % of control (endpoint: mean survival time, dose: 150.0 mg/kg/injection, schedule: Q04DX003 (ip), vehicle: saline); 94 % of control (endpoint: mean survival time, dose: 300.0 mg/kg/injection, schedule: Q04DX003 (ip), vehicle: saline).
`CC12CCC3C(CCC4CCCCC43C)C1CC/C2=N\O` (centres undefined): the T/C reads like this: (endpoint: mean survival time, dose: 100.0 mg/kg/injection, schedule: Q04DX003 (sc), vehicle: steriod suspending solution) 96 % of control; (endpoint: mean survival time, dose: 200.0 mg/kg/injection, schedule: Q04DX003 (sc), vehicle: steriod suspending solution) 104 % of control; (endpoint: mean survival time, dose: 400.0 mg/kg/injection, schedule: Q04DX003 (sc), vehicle: steriod suspending solution) 89 % of control.
As for `CN(C)C(=O)SCCSC(=O)N(C)C`, the T/C by setting is: (endpoint: mean survival time, dose: 100.0 mg/kg/injection, schedule: Q04DX002 (ip), vehicle: saline with Tween-80) 106 % of control; (endpoint: mean survival time, dose: 200.0 mg/kg/injection, schedule: Q04DX002 (ip), vehicle: saline with Tween-80) 92 % of control; (endpoint: mean survival time, dose: 400.0 mg/kg/injection, schedule: Q04DX002 (ip), vehicle: saline with Tween-80) 95 % of control.
In the case of `NCc1ccncc1`, the T/C reads like this: under setting [1], 106 % of control; under setting [2], 95 % of control; (endpoint: mean survival time, dose: 400.0 mg/kg/injection, schedule: Q04DX002 (ip), vehicle: saline) 98 % of control.
With `Nc1ccc(CNC(=O)Nc2ccc(S(=O)(=O)F)cc2)cc1`, the T/C by setting is: under setting [10], 95 % of control; under setting [11], 91 % of control; under setting [4], 110 % of control; under setting [6], 92 % of control; under setting [8], 92 % of control.
In the case of `COc1cc2c3cc1Oc1c(OC)c(OC)cc4c1C(Cc1ccc(O)c(c1)Oc1ccc(cc1)CC3N(C)CC2)CN(C)C4` (centres undefined), the T/C reads like this: under setting [4], 101 % of control; under setting [6], 93 % of control.
In the case of `N#CC(c1ccccc1)C1CCCCC1` (centres undefined), the T/C is, setting by setting: (endpoint: mean survival time, dose: 75.0 mg/kg/injection, schedule: Q01DX009 (ip), vehicle: saline) 95 % of control; under setting [9], 106 % of control; (endpoint: mean survival time, dose: 300.0 mg/kg/injection, schedule: Q01DX009 (ip), vehicle: saline) 108 % of control.
On to `CN(CCSSCCN(C)/N=C/c1ccccc1)/N=C/c1ccccc1`, for which the T/C runs as follows: under setting [4], 97 % of control; under setting [6], 101 % of control; under setting [8], 101 % of control.
`COC(=O)C12CCc3ccoc3C1CCC1(C)C(C)=CCCC12` (centres undefined): the T/C reads like this: (endpoint: mean survival time, dose: 50.0 mg/kg/injection, schedule: Q04DX002 (ip), vehicle: other) 115 % of control; (endpoint: mean survival time, dose: 100.0 mg/kg/injection, schedule: Q04DX002 (ip), vehicle: other) 107 % of control; (endpoint: mean survival time, dose: 200.0 mg/kg/injection, schedule: Q04DX002 (ip), vehicle: other) 107 % of control.
For the compound `CCOC(=O)C(C)(C)Oc1ccc(Cl)cc1`, the T/C by setting is: under setting [12], 100 % of control and 105 % of control; under setting [13], 97 % of control and 98 % of control; under setting [14], 103 % of control and 104 % of control; (endpoint: mean survival time, dose: 100.0 mg/kg/injection, schedule: Q01DX001 (ip), vehicle: saline with Tween-80) 94 % of control; under setting [3], 100 % of control and 101 % of control and 103 % of control; (endpoint: mean survival time, dose: 200.0 mg/kg/injection, schedule: Q01DX001 (ip), vehicle: saline with Tween-80) 91 % of control. Moreover, the T/C was 100 % of control and 101 % of control and 102 % of control under setting [5]; 94 % of control (endpoint: mean survival time, dose: 400.0 mg/kg/injection, schedule: Q01DX001 (ip), vehicle: saline with Tween-80); 100 % of control and 104 % of control and 109 % of control under setting [7].
As to `COC(C(OC)N1CCOCC1)N1CCOCC1` (centres undefined), the T/C under setting [4] is 89 % of control and the T/C under setting [6] is 89 % of control.
Take `Cc1cccc2c(CBr)cc(=O)[nH]c12`: the T/C was 101 % of control (endpoint: mean survival time, dose: 12.5 mg/kg/injection, schedule: Q04DX003 (ip), vehicle: saline with Tween-80); 101 % of control under setting [10]; 101 % of control under setting [11].
For the compound `Fc1ccc2c(c1)C(Br)c1ccccc1-2` (centres undefined), the T/C is, setting by setting: (endpoint: mean survival time, dose: 6.25 mg/kg/injection, schedule: Q01DX009 (ip), vehicle: saline with Tween-80) 96 % of control; under setting [12], 96 % of control; under setting [13], 105 % of control; under setting [4], 108 % of control; under setting [6], 88 % of control; under setting [8], 97 % of control.
With `COC(=O)C1C(O)C(C)C(O)C(C)/C=C\C=C(C)C(=O)Nc2c(C)c(OC(C)=O)c3c(c2O)C(=O)C(C)=C2OCOC(=C23)C(C)=CC(C)(O)C(O)C(C)C1O` (centres undefined), the T/C under setting [11] is 95 % of control, the T/C under setting [4] was 98 % of control and the T/C under setting [6] is 92 % of control.
Take `NCCOC(=O)/C=C/c1ccccc1`: the T/C by setting is: (endpoint: mean survival time, dose: 100.0 mg/kg/injection, schedule: Q01DX009 (ip), vehicle: saline) 93 % of control; (endpoint: mean survival time, dose: 200.0 mg/kg/injection, schedule: Q01DX009 (ip), vehicle: saline) 97 % of control.
For `CNOCc1ccc(C(=O)NC(C)C)cc1`, the T/C (endpoint: mean survival time, dose: 25.0 mg/kg/injection, schedule: Q01DX009 (ip), vehicle: other) is 98 % of control; the T/C (endpoint: mean survival time, dose: 50.0 mg/kg/injection, schedule: Q01DX009 (ip), vehicle: other) is 100 % of control; the T/C (endpoint: mean survival time, dose: 100.0 mg/kg/injection, schedule: Q01DX009 (ip), vehicle: other) is 98 % of control; the T/C (endpoint: mean survival time, dose: 200.0 mg/kg/injection, schedule: Q01DX009 (ip), vehicle: other) was 100 % of control; the T/C (endpoint: mean survival time, dose: 400.0 mg/kg/injection, schedule: Q01DX009 (ip), vehicle: other) is 118 % of control.
With `COC1CCCCC1SCSC1CCCCC1OC` (centres undefined), the T/C by setting is: under setting [4], 91 % of control; under setting [6], 87 % of control; under setting [8], 89 % of control.
Take `CC(=O)CC(=O)Nc1ccccc1`: the T/C by setting is: under setting [12], 101 % of control; under setting [13], 97 % of control; under setting [14], 97 % of control.
On to `CSc1ncnc2nn(C3OC(CO)C(O)C3O)cc12` (centres undefined), for which the T/C was 103 % of control (endpoint: mean survival time, dose: 12.5 mg/kg/injection, schedule: Q01DX005 (ip), vehicle: water); 96 % of control (endpoint: mean survival time, dose: 25.0 mg/kg/injection, schedule: Q01DX005 (ip), vehicle: water); 103 % of control (endpoint: mean survival time, dose: 50.0 mg/kg/injection, schedule: Q01DX005 (ip), vehicle: water); 107 % of control (endpoint: mean survival time, dose: 100.0 mg/kg/injection, schedule: Q01DX005 (ip), vehicle: water); 100 % of control (endpoint: mean survival time, dose: 200.0 mg/kg/injection, schedule: Q01DX005 (ip), vehicle: water).

(Values after PubChem BioAssay AID256 (DTP/NCI, 2004).)
